Assay results taken from US11352350B2, “IRAK degraders and uses thereof” (Kymera Therapeutics, Inc., priority 2018, dated 2022).

Test system: OCI-LY10 cells
Test: OCI-LY10 flow staining (Ki67, active Caspase-3, IRAK4)
Format: cell-based, human
Conditions: FIG. 4
Experimental: OC1-LY10 cell line was cultured in IMDM medium supplemented with 20% FBS, B-ME and pen/strep. On Day 1, cells were plated at 200K per well in 96 well plates. Compounds were diluted to 1000× in DMSO, then further diluted to 100× in media, and added to cells at 4 concentrations over 4 different timepoints (24h, 48h, 72h and 96h). Timepoints were staggered so all cells were harvested and stained at the same time. Paclitaxel was added as a positive control and a DMSO control for each timepoint was also included. On day 5, plates were harvested and cells were fixed, permeabilized, and stored at −4 C until further processing. On day 8, the Ki67 plates were stained using KI-67-APC antibody (Biolegend, Cat #350514). The Caspase 3 plates were stained using the PE Active Caspase-3 Apoptosis Kit (BD Biosciences, Cat #550914) and the IRAK 4 plates were stained with Hu IRAK4 A^b Alexa 647 Clone: L29-525 antibody (BD, Cat #560315). Cells were resuspended in staining buffer and run on a Beckman Coulter CytoFlex 13 color Cytometer (Model #A00-1-1102, Serial #AS10086).

Q: `CN(CCCOCCCc1cccc2c1n(C)c(=O)n2C1CCC(=O)NC1=O)C[C@H]1CC[C@H](n2cc(NC(=O)c3coc(-c4ccnc(NCC5CC5)c4)n3)c(C(F)F)n2)CC1` (mixture of isomers) [I-30, 2-[2-(Cyclopropylmethylamino)-4-pyridyl]-N-[3-(difluoromethyl)-1-[4-[[3-[3-[1-(2,6-dioxo-3-piperidyl)-3-methyl-2-oxo-benzimidazol-4-yl]propoxy]propyl-methyl-amino]methyl]cyclohexyl]pyrazol-4-yl] oxazole-4-carboxamide] was tested. Which “induction of apoptosis in OCI-LY10 lymphoma line” value did it give?
A: induces apoptosis
